Source: patent US8920851B2, “Treatment of neurodegenerative diseases” (Velacor Therapeutics Pty Ltd, priority 2006, dated 2014)
“Also recorded” adds a separate entry of the source.

Tests used:
[1] = molecular target: T1, PP2A catalytic subunit complexed with Akt (Homo sapiens, UniProt P67775); test: Co-immunoprecipitation of PP2A catalytic subunit with Akt from PC3 cells; assay type: cell-based; conditions: 500 μM, 1.5 h, densitometry
T1 construct: Total Akt was immunoprecipitated from 400 μg of each whole cell lysate using a monoclonal anti-Akt antibody; endogenous in cells; host or cells: PC3 prostate carcinoma cells
Procedure: 1×10^6 PC3 prostate carcinoma cells were plated onto 6 cm dishes, allowed attach for 8 h, and then serum starved overnight. […] Total Akt was immunoprecipitated from 400 μg of each whole cell lysate using a monoclonal anti-Akt antibody, and captured with protein A-sepharose beads. […] Following washing to reduce non-specific binding, the beads were boiled for 5 min in 3× SDS protein loading buffer, centrifuged at high speed and the supernatant resolved by SDS-PAGE. The level of PP2A binding was determined by immunoblot analysis with an antibody that specifically recognizes the catalytic subunit of the phosphatase, and comparison made with the amount of Akt pulled down and the concentration of precipitating antibody (IgG). […] To quantify this increase in complex formation, representative immunoblots from three independent experiments were digitalized, subjected to densitometric analysis, and normalized to the control for each experiment. The mean ratio of PP2A catalytic subunit to total immunoprecipitated Akt protein ±SEM was then determined.
100-600 μg of whole cell lysate was incubated with various antibodies at a 1:100 dilution in microfuge tubes on a rotating wheel for 1-2 h at RT or 16 h at 4° C. as indicated. Following brief centrifugation, 30-40 μl of pre-washed 50% Protein-A Sepharose Fast Flow beads (Sigma #9424) was added to each tube and rotated at 4° C. for 1 h at RT or 4° C. […]

[2] = molecular target: T2, purified human PP2A A-C dimer (Homo sapiens, UniProt P67775); test: Free sulfhydryl groups in purified PP2A (Ellman's assay); assay type: biochemical; conditions: 15 min at 37° C.
T2 construct: purified PP2A A-C dimer purified from human red blood cells; purchased Upstate 14-111 (lot #28002); host or cells: human red blood cells (native purification)
From the text: Inactivating reversible oxidation of protein phosphatases involves the modification of a critical cysteine residue within the catalytic domain, ultimately leading to the formation of either intramolecular disulphide or sulphenyl-amide bonds. […] Ellman's reagent (5,5′-Dithio-bis(2-nitrobenzoic acid), DTNB) rapidly forms a disulphide bond with free sulfhydryl groups with the release of chromogenic thiolate ions. […] The quantity of free sulfhydryl groups present within the phosphatase was then determined by the addition of Ellman's reagent and subsequent measurement of absorbance at 412 nm (FIG. 5C).
The change in free sulfhydryl groups in purified PP2A following various treatments was determined using Ellman's Reagent. To 0.01 U of PP2A was added to 37.5 μl of dilution buffer (30 mM Tris-HCl, 3 mM EDTA, pH 8.2), 12.5 μl DTNB reagent (Ellman's reagent) and 200 μl of methanol. Samples were incubated for 5 min at RT, and then extinction measured in duplicate for each at 412 nm.

[3] = test system: Akt; test: Akt phosphorylation by immunoblot in PC3 prostate carcinoma cells; assay type: cell-based, human; conditions: for Akt phosphorylation at Ser473: PC3 cells, 500 μM of each compound, various timepoints
Procedure: Such dephosphorylation may be the result of a direct inhibitory effect on the Akt protein itself, or alternatively, can be similarly achieved indirectly by boosting a negative regulator or inhibiting a positive regulator of Akt phosphorylation. […] PC3 prostate carcinoma cells were plated in 100 mm dishes, and when 70-80% confluent serum starved overnight. […] Cells were lysed, and the level of Akt Ser473 phosphorylation determined by immunoblot analysis with an activation specific antibody, and comparison made to levels of Akt protein expressed. To determine the effect on purified Akt, similarly plated but untreated PC3 cells were lysed in RIPA (minus phosphatase inhibitors), a stringent cell lysis buffer that minimizes maintenance of protein-protein complexes. […] The immunoprecipitated protein was then resolved and the level of activated Akt determined by immunoblot analysis as described above.
A reduction in net Akt activity could be achieved indirectly by either preventing the initial Akt phosphorylation, or alternatively, increasing Akt dephosphorylation [Kohn et. al. 1996]. […] Initially okadaic acid, a polyether toxin from red-tide algae (and causative agent of diarrhoetic shellfish poisoning) which inhibits the phospho-protein phosphatases PP1 and PP2A, two phosphatases implicated in the regulation of Akt dephosphorylation was used [Fernandez et al., 2002]. 5×10^5 PC3 prostate carcinoma cells were plated per well of a 6 well plate, allowed attach for 8 h, and then serum starved overnight. […] Lysed cells were resolved by SDS-PAGE, then probed for Akt phosphorylation at the Ser473 residue by immunoblot analysis with an antibody that specifically recognizes Akt when phosphorylated at this site, and comparison made with the total levels of Akt protein expressed (FIG. 2A).
This panel included tautamycin 500 nM (PP1), okadaic acid 500 nM (low dose PP2A>PP1), endothall A (PP2A) 100 μM, calyculin A 2 nM (low dose PP1>PP2A), calyculin A 10 nM (high dose inhibits PP1 and PP2A) and cyclosporine A 400 ng/ml (PP2B). […] Again, lysed cells were resolved by SDS-PAGE, then membranes probed for Akt phosphorylation at the Ser^473 residue by immunoblot analysis with an antibody that specifically recognizes Akt when phosphorylated at this site, and comparison made with the total levels of Akt protein expressed.
5×10^5 PC3 prostate carcinoma cells were plated per well in a 6-well plate, allowed to attach for 8 h, and then serum starved overnight. […] Equal amounts of whole cell lysates were resolved, and then subjected to immunoblot analysis to determine the level of phosphorylated Akt Ser^473. Comparison was then made with the total level of Akt protein expressed.
The phosphorylation status of Akt in whole cell lysates was determined using activation specific antibodies.
Other inorganic (sodium selenite, selenium dioxide, selenium sulphide and selenious acid) and organic (methylselenocysteine, selenocystine) selenium species were tested for their ability to affect Akt activation. All forms were dissolved in water with the exception of selenium sulphide which was solubilised in DMSO, and added to serum starved PC3 cells at a concentration of 500 μM for 1 hour, Whole cell lysates were then resolved, and the activation status of Akt determined by immunoblotting with an antibody that specifically recognizes Akt when phosphorylated at the Ser473 site, as well as the total level of Akt expression (pan Akt). To quantify the degree of Akt activation, immunoblots were digitalised, and the ratio of phosphorylated Akt to total Akt determined by densitometry.

[4] = molecular target: phosphatase activity associated with immunoprecipitated Akt protein (PP2A) (Homo sapiens, UniProt P67775); conditions: PC3 cells, 500 μM, 1 h
Procedure: 2×10^6 PC3 cells were plated in 10 cm plates, allowed to attach for 8 hours, and then serum starved over night. […] 500-600 μg of total protein was then immunoprecipitated with anti-Akt (1:100) monoclonal antibody and 30 μl of Protein A slurry, and after washing, checked for free phosphate contamination by incubation of 25 μl of final wash buffer with Malachite Green. Immunoprecipitates were assayed for phosphatase activity by incubation with 500 μM synthetic phospho-threonine peptide for 10 min at 30° C. with agitation. Free phosphate was detected by the addition of malachite green solution, and absorbance was read at 590 nm, for each sample in duplicate.

[5] = serum free PC3 cells, 500 μM, various times

T2 sequence (P67775 whole entry): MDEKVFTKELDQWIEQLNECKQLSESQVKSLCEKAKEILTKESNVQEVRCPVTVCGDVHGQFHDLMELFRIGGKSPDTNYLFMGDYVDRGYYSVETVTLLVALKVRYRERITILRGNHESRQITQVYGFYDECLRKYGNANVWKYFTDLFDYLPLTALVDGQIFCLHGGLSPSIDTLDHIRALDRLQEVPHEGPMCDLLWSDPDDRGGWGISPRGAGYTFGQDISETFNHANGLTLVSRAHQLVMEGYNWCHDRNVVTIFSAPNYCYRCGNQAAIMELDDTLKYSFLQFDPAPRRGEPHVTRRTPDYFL
T2 sequence (P30153 2-589 partner limits assumed): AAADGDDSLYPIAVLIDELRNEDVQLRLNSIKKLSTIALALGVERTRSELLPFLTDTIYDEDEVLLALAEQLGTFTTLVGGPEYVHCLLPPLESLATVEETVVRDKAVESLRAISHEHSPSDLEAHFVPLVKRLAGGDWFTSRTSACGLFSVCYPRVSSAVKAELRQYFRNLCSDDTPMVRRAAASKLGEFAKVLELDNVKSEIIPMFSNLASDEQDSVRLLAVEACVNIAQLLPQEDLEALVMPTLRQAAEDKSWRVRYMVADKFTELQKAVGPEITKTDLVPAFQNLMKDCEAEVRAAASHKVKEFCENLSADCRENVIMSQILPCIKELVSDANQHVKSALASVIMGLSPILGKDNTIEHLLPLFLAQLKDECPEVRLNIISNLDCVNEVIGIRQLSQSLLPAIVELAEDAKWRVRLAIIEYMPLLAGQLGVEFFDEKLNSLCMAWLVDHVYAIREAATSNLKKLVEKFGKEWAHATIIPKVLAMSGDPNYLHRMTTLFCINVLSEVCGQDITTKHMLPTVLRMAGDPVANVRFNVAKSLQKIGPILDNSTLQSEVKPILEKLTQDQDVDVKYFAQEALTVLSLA
Sequence of phosphatase activity associated with immunoprecipitated Akt protein (PP2A) (P67775 whole entry): as the sequence (P67775 whole entry) above
Sequence of phosphatase activity associated with immunoprecipitated Akt protein (PP2A) (P30153 2-589, further chain): as the sequence (P30153 2-589 partner limits assumed) above
T1 sequence (P67775 whole entry): as the sequence (P67775 whole entry) above
T1 sequence (P30153 2-589 partner limits assumed): as the sequence (P30153 2-589 partner limits assumed) above

O=[Se](=O)(O)O [sodium selenate]
increase in the binding of PP2A catalytic subunit to Akt protein [1]: approximately 50% | number of free sulfhydryl groups in PP2A ([2]; 0.01 U PP2A, 10 mM of each agent): has no effect | hydrogen peroxide mediated modification of PP2A sulfhydryl groups in the presence of sodium selenate ([2]; sodium selenate 10 mM and hydrogen peroxide 10 mM): did not protect PP2A from hydrogen peroxide mediated modification of sulfhydryl groups; also recorded: significantly more efficient in the presence of sodium selenate | Akt phosphorylation at Ser473 [3]: profoundly inhibited Akt phosphorylation | Akt phosphorylation at Ser473 ([3]; listed as selenate): inhibited Akt phosphorylation | Akt Ser473 phosphorylation ([3]; intact serum starved PC3 cells, sodium selenate 500 μM, 1 h): profound reduction in Akt phosphorylation; also recorded: markedly reduces the chronically high levels of Akt phosphorylation; also recorded: marked decrease in the phosphorylation of Akt; also recorded: markedly reduced the level of Akt phosphorylation | phosphorylation of Akt at Ser473 and Thre308, after the initial boost [3, 5]: marked and prolonged deactivation | total cellular Akt levels (pan Akt) [3, 5]: remained essentially unchanged | phosphorylation of Akt at Ser473 and Thre308, early ([3]; serum free PC3 cells, 500 μM, within 10 minutes of exposure): transient boost in phosphorylation of Akt | Akt activation: ratio of phosphorylated Akt to total Akt versus control ([3]; serum starved PC3 cells, 500 μM, 1 hour, densitometry): inhibits activation of Akt | reduction in Akt phosphorylation at Ser473 compared to untreated cells ([3]; serum starved PC3 cells, 500 μM, 1 hour, densitometry, p<0.05): greater than 80% | phosphatase activity associated with immunoprecipitated Akt protein [4]: more than doubled
